The values that follow come from patent US20110039825A1, “LIGANDS OF ALPHA-ADRENOCEPTORS, DOPAMINE, HISTAMINE, IMIDAZOLINE AND SEROTONIN RECEPTORS AND THEIR USE” (Alla Chem, LLC, priority 2007, published 2011).

In one test the test system is imidazoline receptor I2. The test is described as follows: radioligand binding to imidazoline receptor I2 ([3H] Idazoxan). Further details: species or system rat. How it is done:
Determination of investigated compounds' binding to imidazoline I2 receptor is carried out according to the method described in [Brown C M, MacKinnon A C, McGrath J C, Spedding M and Kilpatrick A T, a2-Adrenoceptor subtypes and imidazoline-like binding in the rat brain. Br J. Pharmacol. 99:803-809, 1990]. […] Idazoxan is used as positive control.

The target in the next test is T1, adrenergic receptor α1A (Rattus norvegicus, UniProt P43140).
T1 construct: membrane species from rat submaxillary glands (rat of Wistar breed) are prepared; from tissue; host or cells: rat (Wistar) submaxillary gland membranes
T1 sequence (P43140 1-466): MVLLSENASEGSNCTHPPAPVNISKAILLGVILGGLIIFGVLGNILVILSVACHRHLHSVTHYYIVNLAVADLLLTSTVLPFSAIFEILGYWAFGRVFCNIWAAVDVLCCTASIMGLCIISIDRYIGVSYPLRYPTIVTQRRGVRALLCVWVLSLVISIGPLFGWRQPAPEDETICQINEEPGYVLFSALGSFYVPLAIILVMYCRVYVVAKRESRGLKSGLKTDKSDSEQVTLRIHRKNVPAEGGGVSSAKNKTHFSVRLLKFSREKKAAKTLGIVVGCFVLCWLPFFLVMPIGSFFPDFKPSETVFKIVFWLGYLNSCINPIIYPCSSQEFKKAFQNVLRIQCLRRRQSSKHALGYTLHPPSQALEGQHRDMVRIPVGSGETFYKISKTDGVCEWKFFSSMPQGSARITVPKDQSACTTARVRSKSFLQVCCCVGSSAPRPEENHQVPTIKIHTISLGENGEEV
Description: radioligand binding to adrenergic receptor α1A ([3H] Prazosin). The method, then:
Determination of investigated compounds' binding to α1A receptor was carried out according to the method described in [Michel A D, Loury D N and Whiting R l. Identification of a single α1A-adrenoceptor corresponding to the α1A-subtype in rat submaxillary gland. Br J. Pharmacol. 98:883-889, 1989]. […] Prazosin is used as positive control.

For test [1], the target named is T2, recombinant human 5-HT2C receptor (Homo sapiens, UniProt P28335).
T2 construct: expressed in transfected cells; host or cells: CHO-K1
T2 sequence (P28335 33-458): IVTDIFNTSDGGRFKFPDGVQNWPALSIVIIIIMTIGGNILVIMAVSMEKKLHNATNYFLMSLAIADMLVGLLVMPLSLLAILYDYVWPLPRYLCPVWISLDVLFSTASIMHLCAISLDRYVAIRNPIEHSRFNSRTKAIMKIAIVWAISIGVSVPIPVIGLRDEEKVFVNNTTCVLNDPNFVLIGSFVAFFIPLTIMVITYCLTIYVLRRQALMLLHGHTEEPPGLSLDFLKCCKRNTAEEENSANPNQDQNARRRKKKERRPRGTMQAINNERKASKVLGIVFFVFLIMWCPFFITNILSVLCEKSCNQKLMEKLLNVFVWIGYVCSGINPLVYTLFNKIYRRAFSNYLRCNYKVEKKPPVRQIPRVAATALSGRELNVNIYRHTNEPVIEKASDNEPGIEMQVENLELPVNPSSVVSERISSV
The test is described as follows: radioligand binding to serotonin receptor 5-HT2C ([3H] Mesulergine). The text has this:
J. Neurochem. 69: 1449-1458, 1997]. […] SB242084 is used as positive control.

For another test, the target named is T3, human D3 receptor (Homo sapiens, UniProt P35462).
T3 construct: expressed in transfected cells; host or cells: CHO
T3 sequence (P35462 whole entry): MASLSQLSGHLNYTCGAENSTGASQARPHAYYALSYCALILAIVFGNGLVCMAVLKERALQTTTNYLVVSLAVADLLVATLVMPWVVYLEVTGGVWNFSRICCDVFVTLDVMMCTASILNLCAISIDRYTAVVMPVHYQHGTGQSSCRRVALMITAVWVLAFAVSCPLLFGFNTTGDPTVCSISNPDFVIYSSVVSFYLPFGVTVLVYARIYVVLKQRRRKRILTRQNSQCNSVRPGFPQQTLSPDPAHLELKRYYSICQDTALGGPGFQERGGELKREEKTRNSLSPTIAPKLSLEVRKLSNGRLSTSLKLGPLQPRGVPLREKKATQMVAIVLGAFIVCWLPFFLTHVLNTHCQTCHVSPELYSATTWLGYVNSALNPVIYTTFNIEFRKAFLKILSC
Description: radioligand binding to dopamine receptor D3 ([3H] Spiperone). Particulars: for Dopamine receptor D3, % inhibition: 10 μM ligand. The text has this:
For this purpose sDNA of human D3 receptor is expressed in CHO cells, as it was described in [Sokoloff P, Giros B, Martres M-P, Bouthenet M-L and Schwartz J-C. Molecular cloning and characterization of novel dopamine receptor (D3) as target for neuroleptics. Nature. […] Molecular cloning and characterization of novel dopamine receptor (D3) as target for neuroleptics. Nature. […] Spiperone is used as positive control.

A further test deals with T4, human 5-HT7 receptor (Homo sapiens, UniProt P34969).
T4 construct: expressed in transfected cells; host or cells: CHO
T4 sequence (P34969 whole entry): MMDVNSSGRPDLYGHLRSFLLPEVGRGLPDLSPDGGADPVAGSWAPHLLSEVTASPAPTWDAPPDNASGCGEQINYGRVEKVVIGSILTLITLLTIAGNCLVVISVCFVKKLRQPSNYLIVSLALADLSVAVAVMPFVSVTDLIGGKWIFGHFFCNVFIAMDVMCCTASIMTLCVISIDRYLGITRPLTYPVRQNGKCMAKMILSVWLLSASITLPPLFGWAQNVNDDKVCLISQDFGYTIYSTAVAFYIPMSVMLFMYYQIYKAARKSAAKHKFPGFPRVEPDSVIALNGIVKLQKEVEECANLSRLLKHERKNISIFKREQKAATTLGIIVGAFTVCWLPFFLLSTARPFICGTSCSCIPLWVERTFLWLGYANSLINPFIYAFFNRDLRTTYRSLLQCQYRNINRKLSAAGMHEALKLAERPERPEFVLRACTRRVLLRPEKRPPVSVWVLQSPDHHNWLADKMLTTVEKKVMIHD
Description: radioligand binding to serotonin receptor 5-HT7 ([3H] Lysergic acid diethylamide). The text has this:
For this purpose sDNA of human 5-HT7 receptor is expressed in CHO cells as it was described in [Shen Y, Monsma F J Jr, Metcalf M A, Jose P A, Hamblin M W, and Sibley DR. […] J. Biol. Chem. 1993, 268, 18200-18204]. […] J. Pharmacol. Exp. Ther. 1994, 268:1403-1410]. […] Methiothepin is used as positive control.

Another test concerns the target T5, recombinant human 5-HT1A (Homo sapiens, UniProt P08908).
T5 construct: expressed in transfected cells; host or cells: CHO
T5 sequence (P08908 1-422): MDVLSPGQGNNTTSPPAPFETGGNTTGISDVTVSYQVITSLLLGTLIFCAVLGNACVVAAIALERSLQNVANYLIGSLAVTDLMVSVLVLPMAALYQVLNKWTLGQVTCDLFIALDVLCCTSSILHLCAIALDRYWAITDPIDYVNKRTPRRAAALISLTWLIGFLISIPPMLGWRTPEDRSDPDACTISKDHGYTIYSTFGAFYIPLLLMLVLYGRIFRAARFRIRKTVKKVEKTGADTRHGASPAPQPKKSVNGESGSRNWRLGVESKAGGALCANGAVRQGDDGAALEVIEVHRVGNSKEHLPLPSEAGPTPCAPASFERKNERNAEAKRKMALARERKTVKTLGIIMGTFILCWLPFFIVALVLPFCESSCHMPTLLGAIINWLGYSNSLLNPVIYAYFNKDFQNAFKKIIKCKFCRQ
Description: radioligand binding to serotonin receptor 5-HT1A ([3H] 8-OH-DPAT). The text has this: J Pharmacol Exp Ther. 306(1): 301-309, 2003]. […] Metergoline is used as positive control.

A further test deals with T6, human H2 receptor (Homo sapiens, UniProt P25021).
T6 construct: expressed in transfected cells; host or cells: CHO-K1
T6 sequence (P25021 whole entry): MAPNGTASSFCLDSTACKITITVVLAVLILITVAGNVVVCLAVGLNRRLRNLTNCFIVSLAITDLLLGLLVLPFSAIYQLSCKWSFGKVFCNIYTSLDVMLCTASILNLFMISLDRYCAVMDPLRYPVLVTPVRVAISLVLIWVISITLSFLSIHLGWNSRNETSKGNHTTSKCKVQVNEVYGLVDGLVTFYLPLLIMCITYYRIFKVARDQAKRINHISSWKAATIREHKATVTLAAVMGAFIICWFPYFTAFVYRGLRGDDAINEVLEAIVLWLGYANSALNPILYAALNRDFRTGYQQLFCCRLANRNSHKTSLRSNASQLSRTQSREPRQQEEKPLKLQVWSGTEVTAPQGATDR
The test is described as follows: radioligand binding to histamine receptor H2 ([125I] Aminopotentidine). Particulars: 10 μM ligand. The text has this: Proc Natl Acad Sci USA. 87(5): 1658-1662, 1990]. […] Proc Natl Acad Sci USA. 87(5): 1658-1662, 1990]. […] Tiotidine is used as positive control.

SMILES strings stand for the structures.

Turning to `CN1CCc2c(c3ccccc3n2Cc2ccccc2)C1` [1.9(1)•½NDSA, bis-(5-benzyl-2-methyl-2,3,4,5-tetrahydro-1H-pyrido[4,3-b]indole) naphtalene-1,5-disulfonate], the “imidazoline I2 receptor % inhibition” value in the test on imidazoline receptor I2 (0.3 μM ligand) is 87 (0.3 μM) %. In addition, on adrenergic receptor α1A, the IC50 is 510 nM, the Ki amounted to 206 nM and the “nH α1A” value is reported as 1.08. The “α-Adrenoceptor α1A, % inhibition” value on adrenergic receptor α1A (1 μM ligand) is on record as 67(1 μM) %. Moreover, in test [1], the IC50 amounted to 13.5 nM, the Ki was found to be 7.08 nM and the “nH 5-HT2C” value is 0.987. In addition, at human D3 receptor, the IC50 amounted to 1360 nM; affinity was put at a Ki of 462 nM; the “nH D3” value turned out to be 1.04; the “Dopamine receptor D3, % inhibition” value is given as 65%.

Take `Cc1ccc2c(c1)[C@@H]1CN(C)CCC[C@@H]1N2CCc1ccc(C)nc1.Cl.Cl.Cl` (relative stereo) [1.6.1(2)•3HCl]: the “imidazoline I2 receptor % inhibition” value with imidazoline receptor I2 (10 μM ligand) is recorded as 80%. The compound further came in with a 5-HT7 % inhibition on human 5-HT7 receptor (10 μM ligand) of 8%. The 5-HT1A % inhibition at recombinant human 5-HT1A (10 μM ligand) is on record as −9%. On human H2 receptor, the “Histamine receptor H2, % inhibition” value was 66%. The “Dopamine receptor D3, % inhibition” value at human D3 receptor is listed as 41%.

Take `Cc1ccc2c(c1)c1c(n2CCc2ccccn2)CCN(C)C1.Cl.Cl` [1.1.2(2-3)•2HCl]: in the test on imidazoline receptor I2 (10 μM ligand), the “imidazoline I2 receptor % inhibition” value was 88%. Further, the inhibition at 1 µM at human 5-HT7 receptor (ligand concentration 1 μM) was determined as 100%; at recombinant human 5-HT1A (ligand concentration 1 μM), 53%. The IC50 at adrenergic receptor α1A stood at 450 nM. At adrenergic receptor α1A, this compound gave a Ki of 182 nM.

Take `Cc1ccc2c(c1)[C@H]1CN(C)CCC[C@@H]1N2CCc1cccnc1` [1.6.2(10)•3HCl]: the “α-Adrenoceptor α1A, % inhibition” value on adrenergic receptor α1A (10 μM ligand) was found to be 86%. The “Histamine receptor H2, % inhibition” value at human H2 receptor came to 69%. Moreover, in test [1] (ligand concentration 1 μM), the inhibition at 1 µM worked out at 99%. For the same compound, the “Dopamine receptor D3, % inhibition” value on human D3 receptor was 25%.

As usually defined, the IC50 is the concentration that inhibits the measured activity by half. A word on the Ki: it is the dissociation constant of the complex between target and ligand, obtained from inhibition or displacement. For orientation: inhibition means the percentage by which the read-out fell short of the control.
